According to US8471005B2 (Cephalon, Inc., priority 2008, dated 2013):
Like-named read-outs stand apart in the source and are kept apart here.

Assays:
ALK = target: T1, ALK (Homo sapiens, UniProt Q9UM73); assay: ALK Kinase Assay (ELISA/TRF, PLC-γ substrate); type: biochemical; settings: read-out: ALK Potency
T1 construct: host or cells: baculovirus expression system
Procedure, shortened: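 PLC-γ coat 10 μg/mL in TBS; ALK 30 ng/ml added to start; 37° C, 15 min; Eu-N1 PT66 antibody detection (TRF). IC50: % inhibition vs log10 [cpd], variable-slope sigmoidal fit.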

JAK2 = target: T2, JAK2 (Homo sapiens, UniProt O60674); assay: Recombinant Human JAK2 Kinase Assay (TRF); type: biochemical; settings: read-out: JAK2 Potency
T2 construct: host or cells: baculovirus expression system
Procedure, shortened: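 Baculovirus-expressed JAK2 (15 ng/ml) phosphorylated a biotinylated 15-mer peptide captured on Neutravidin, in 20 mM HEPES pH 7.2, 0.2 μM ATP, 1 mM MnCl2, 0.1% BSA, 2.5% DMSO final, 20 min at room temperature. Phosphoproduct detected by time-resolved fluorescence with Eu-N1-labelled PY100 antibody.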

[1] = ALK kinase inhibition, 1 μM ATP
[2] = JAK2 kinase inhibition, 0.2 μM ATP

T2 sequence (O60674 whole entry): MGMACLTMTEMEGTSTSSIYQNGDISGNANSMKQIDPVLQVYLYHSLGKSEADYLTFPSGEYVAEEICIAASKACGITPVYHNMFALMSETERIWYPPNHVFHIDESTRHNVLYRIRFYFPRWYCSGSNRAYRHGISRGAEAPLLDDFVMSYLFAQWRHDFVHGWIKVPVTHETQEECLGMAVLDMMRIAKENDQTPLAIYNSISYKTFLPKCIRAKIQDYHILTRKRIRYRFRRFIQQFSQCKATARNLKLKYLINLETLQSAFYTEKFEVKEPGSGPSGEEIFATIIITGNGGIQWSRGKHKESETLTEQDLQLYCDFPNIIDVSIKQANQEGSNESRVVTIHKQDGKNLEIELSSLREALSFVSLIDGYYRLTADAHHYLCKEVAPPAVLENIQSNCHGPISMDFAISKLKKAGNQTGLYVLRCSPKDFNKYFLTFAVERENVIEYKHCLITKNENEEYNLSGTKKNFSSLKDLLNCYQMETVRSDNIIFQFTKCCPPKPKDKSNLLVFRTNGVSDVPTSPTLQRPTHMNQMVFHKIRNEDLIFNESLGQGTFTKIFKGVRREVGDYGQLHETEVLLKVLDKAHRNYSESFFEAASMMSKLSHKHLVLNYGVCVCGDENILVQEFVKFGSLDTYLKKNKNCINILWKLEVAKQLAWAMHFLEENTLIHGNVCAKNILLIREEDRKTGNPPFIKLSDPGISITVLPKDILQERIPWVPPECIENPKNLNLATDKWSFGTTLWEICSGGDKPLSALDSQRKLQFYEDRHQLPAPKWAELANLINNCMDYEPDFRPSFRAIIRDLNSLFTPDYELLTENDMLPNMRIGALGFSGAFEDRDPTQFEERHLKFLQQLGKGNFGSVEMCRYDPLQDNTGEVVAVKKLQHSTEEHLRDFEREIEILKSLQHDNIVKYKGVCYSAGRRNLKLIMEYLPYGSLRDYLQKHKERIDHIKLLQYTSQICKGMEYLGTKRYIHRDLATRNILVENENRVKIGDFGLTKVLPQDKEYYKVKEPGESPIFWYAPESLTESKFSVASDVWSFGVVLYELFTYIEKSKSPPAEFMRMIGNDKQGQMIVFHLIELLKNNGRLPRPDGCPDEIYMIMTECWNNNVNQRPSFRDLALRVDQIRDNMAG
T1 sequence (Q9UM73 19-1620): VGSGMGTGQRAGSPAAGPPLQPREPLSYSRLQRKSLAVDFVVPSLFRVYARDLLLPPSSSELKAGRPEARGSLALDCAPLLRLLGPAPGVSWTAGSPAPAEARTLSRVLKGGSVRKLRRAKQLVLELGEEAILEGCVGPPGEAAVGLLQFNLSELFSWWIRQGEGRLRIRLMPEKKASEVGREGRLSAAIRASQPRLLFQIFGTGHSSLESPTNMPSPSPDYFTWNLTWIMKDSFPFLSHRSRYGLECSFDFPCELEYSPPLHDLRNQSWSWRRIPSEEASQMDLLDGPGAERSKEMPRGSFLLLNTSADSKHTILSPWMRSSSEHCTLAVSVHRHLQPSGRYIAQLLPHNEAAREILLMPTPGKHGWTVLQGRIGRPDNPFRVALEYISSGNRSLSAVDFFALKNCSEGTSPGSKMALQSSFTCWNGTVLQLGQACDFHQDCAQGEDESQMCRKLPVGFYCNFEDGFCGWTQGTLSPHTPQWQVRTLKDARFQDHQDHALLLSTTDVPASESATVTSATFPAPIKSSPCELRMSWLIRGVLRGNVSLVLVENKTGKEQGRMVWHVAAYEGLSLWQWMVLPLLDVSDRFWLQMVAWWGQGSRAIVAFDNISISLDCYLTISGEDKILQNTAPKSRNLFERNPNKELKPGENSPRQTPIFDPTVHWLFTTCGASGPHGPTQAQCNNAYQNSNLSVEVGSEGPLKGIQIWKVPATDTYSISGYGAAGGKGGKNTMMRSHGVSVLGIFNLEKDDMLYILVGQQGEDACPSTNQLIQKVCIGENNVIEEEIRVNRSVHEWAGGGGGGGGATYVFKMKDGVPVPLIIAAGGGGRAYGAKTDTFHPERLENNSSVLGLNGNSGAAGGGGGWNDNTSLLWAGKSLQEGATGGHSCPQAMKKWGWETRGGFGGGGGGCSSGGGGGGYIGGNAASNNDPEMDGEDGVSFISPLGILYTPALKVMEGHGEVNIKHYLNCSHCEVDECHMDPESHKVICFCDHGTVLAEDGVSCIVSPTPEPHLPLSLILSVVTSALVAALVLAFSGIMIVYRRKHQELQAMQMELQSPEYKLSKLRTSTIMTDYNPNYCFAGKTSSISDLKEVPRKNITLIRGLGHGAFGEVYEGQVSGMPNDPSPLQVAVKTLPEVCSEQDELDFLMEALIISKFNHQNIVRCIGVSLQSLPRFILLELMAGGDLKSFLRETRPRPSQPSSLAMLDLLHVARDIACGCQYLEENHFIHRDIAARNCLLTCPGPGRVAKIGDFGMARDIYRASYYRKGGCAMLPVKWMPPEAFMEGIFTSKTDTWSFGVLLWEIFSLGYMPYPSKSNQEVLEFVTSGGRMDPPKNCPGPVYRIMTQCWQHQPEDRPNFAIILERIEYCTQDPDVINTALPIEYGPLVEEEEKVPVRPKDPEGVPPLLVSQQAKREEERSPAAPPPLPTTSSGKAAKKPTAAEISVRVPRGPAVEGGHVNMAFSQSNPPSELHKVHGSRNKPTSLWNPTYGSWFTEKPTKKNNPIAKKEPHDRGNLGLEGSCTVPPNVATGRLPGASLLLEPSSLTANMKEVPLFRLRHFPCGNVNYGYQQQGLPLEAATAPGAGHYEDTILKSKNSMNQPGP

COc1cc(C2(C#N)CCC(N3CCOCC3)CC2)ccc1Nc1ncc2ccc(-c3ccccc3OC)n2n1 (stereo not drawn) [Example 1246, trans-1-[3-methoxy-4-[[7-(2-methoxyphenyl)pyrrolo[2,1-f][1,2,4]triazin-2-yl]amino]phenyl]-4-morpholino-cyclohexanecarbonitrile] gave an IC50 (ALK; [1]) of under 100 nM and an IC50 (JAK2; [2]) of 100 to 1000 nM.

CN1CCN(c2ccc(Nc3ncc4ccc(-c5ccc(C=O)o5)n4n3)cc2)CC1 [Example 1196, 5-{2-[4-(4-Methyl-piperazin-1-yl)-phenylamino]-pyrrolo[2,1-f][1,2,4]triazin-7-yl}-furan-2-carbaldehyde] gave an IC50 (ALK; [1]) of 100 to 1000 nM and an IC50 (JAK2; [2]) of under 100 nM.

CN1C(=O)Cc2cc(Nc3ncc4ccc(-c5ccccc5N(C)S(C)(=O)=O)n4n3)ccc21 [Example 375, N-Methyl-N-{2-[2-(1-methyl-2-oxo-2,3-dihydro-1H-indol-5-ylamino)-pyrrolo[2,1-f][1,2,4]triazin-7-yl]-phenyl}-methanesulfonamide] showed an IC50 (ALK; ALK Kinase Inhibition) of 100 to 1000 nM and an IC50 (JAK2; JAK2 Kinase Inhibition) of under 100 nM.

Work on CC(C)(C)NS(=O)(=O)c1cccc(-c2ccc3cnc(Nc4ccc(CN5CCCC5)cc4)nn23)c1 [Example 1429, N-tert-Butyl-3-[2-(4-pyrrolidin-1-ylmethyl-phenylamino)-pyrrolo[2,1-f][1,2,4]triazin-7-yl]-benzenesulfonamide] yielded an IC50 (ALK; ALK Kinase Inhibition) of 100 to 1000 nM and an IC50 (JAK2; JAK2 Kinase Inhibition) of under 100 nM.

In the case of COc1cc(C2CCN(CC(C)(C)O)CC2)ccc1Nc1ncc2ccc(-c3ccccc3N(C)S(C)(=O)=O)n2n1 [Example 866, N-[2-(2-{4-[1-(2-Hydroxy-2-methyl-propyl)-piperidin-4-yl]-2-methoxy-phenylamino}-pyrrolo[2,1-f][1,2,4]triazin-7-yl)-phenyl]-N-methyl-methanesulfonamide], the IC50 (ALK; [1]) is reported as under 100 nM and the IC50 (JAK2; [2]) is reported as 100 to 1000 nM.

In the case of COc1ccccc1-c1ccc2cnc(Nc3ccc(N4CCOCC4)nc3)nn12 [Example 47, [7-(2-Methoxy-phenyl)-pyrrolo[2,1-f][1,2,4]triazin-2-yl]-(6-morpholin-4-yl-pyridin-3-yl)-amine], the IC50 (ALK; ALK Kinase Inhibition) is reported as 100 to 1000 nM and the IC50 (JAK2; JAK2 Kinase Inhibition) is reported as under 100 nM.

For COc1cc(C2CCN(CCF)CC2)ccc1Nc1ncc2ccc(-c3ccccc3OC)n2n1 [Example 791, {4-[1-(2-Fluoro-ethyl)-piperidin-4-yl]-2-methoxy-phenyl}-[7-(2-methoxy-phenyl)-pyrrolo[2,1-f][1,2,4]triazin-2-yl]-amine], the IC50 (ALK; [1]) was under 100 nM and the IC50 (JAK2; [2]) was 100 to 1000 nM.

COc1ccc(-c2ccc3cnc(Nc4ccc(C(F)(F)C(=O)N5CCN(C)CC5)cc4)nn23)cn1 [Example 1516, 2,2-Difluoro-2-{4-[7-(6-methoxy-pyridin-3-yl)-pyrrolo[2,1-f][1,2,4]triazin-2-ylamino]-phenyl}-1-(4-methyl-piperazin-1-yl)-ethanone] was tested, and the IC50 (ALK; ALK Kinase Inhibition) was 1000 to 10000 nM and the IC50 (JAK2; JAK2 Kinase Inhibition) was under 100 nM.

Work on CC(=O)Nc1cccc(Nc2ncc3ccc(-c4cccn4CCC#N)n3n2)c1 [Example 1294, N-(3-{7-[1-(2-Cyano-ethyl)-1H-pyrrol-2-yl]-pyrrolo[2,1-f][1,2,4]triazin-2-ylamino}-phenyl)-acetamide] yielded an IC50 (ALK; [1]) of 1000 to 10000 nM and an IC50 (JAK2; [2]) of under 100 nM.

In the case of Fc1ccc(Nc2ncc3ccc(-c4cccnc4)n3n2)cc1N1CCOCC1 [Example 391, (4-Fluoro-3-morpholin-4-yl-phenyl)-(7-pyridin-3-yl-pyrrolo[2,1-f][1,2,4]triazin-2-yl)-amine], the IC50 (ALK; ALK Kinase Inhibition) is reported as 1000 to 10000 nM and the IC50 (JAK2; JAK2 Kinase Inhibition) is reported as under 100 nM.

For OC(c1ccccc1)c1ccc2cnc(Nc3ccc(N4CCOCC4)cc3)nn12 (centres unmarked) [Example 383, [2-(4-Morpholin-4-yl-phenylamino)-pyrrolo[2,1-f][1,2,4]triazin-7-yl]-phenyl-methanol], the IC50 (ALK; ALK Kinase Inhibition) was 1000 to 10000 nM and the IC50 (JAK2; JAK2 Kinase Inhibition) was under 100 nM.

COc1cc(N2CCCC(N3CC(C)OC(C)C3)C2)ccc1Nc1ncc2ccc(-c3ccccc3OC)n2n1 (centres unmarked) [Example 1445, {4-[3-(2,6-Dimethyl-morpholin-4-yl)-piperidin-1-yl]-2-methoxy-phenyl}-[7-(2-methoxy-phenyl)-pyrrolo[2,1-f][1,2,4]triazin-2-yl]-amine] was tested, and the IC50 (ALK; ALK Kinase Inhibition) was under 100 nM and the IC50 (JAK2; JAK2 Kinase Inhibition) was 100 to 1000 nM.

With “[7-(6-Methoxy-pyridin-3-yl)-pyrrolo[2,1-f][1,2,4]triazin-2-yl]-(2-methyl-1,2,3,4-tetrahydro-isoquinolin-7-yl)-amine [Example 985]” the IC50 (ALK; [1]) was under 100 nM and the IC50 (JAK2; [2]) was under 100 nM.

CS(=O)(=O)c1cccc(-c2ccc3cnc(Nc4ccc(N5CCN(CCO)CC5)cc4)nn23)c1 [Example 95, 2-(4-{4-[7-(3-Methanesulfonyl-phenyl)-pyrrolo[2,1-f][1,2,4]triazin-2-ylamino]-phenyl}-piperazin-1-yl)-ethanol] showed an IC50 (ALK; ALK Kinase Inhibition) of 100 to 1000 nM and an IC50 (JAK2; JAK2 Kinase Inhibition) of under 100 nM.

Work on CN1CCN(c2cccc(Nc3ncc4ccc(-c5cnn(CCCO)c5)n4n3)c2)CC1 [Example 976, 3-(4-{2-[3-(4-Methyl-piperazin-1-yl)-phenylamino]-pyrrolo[2,1-f][1,2,4]triazin-7-yl}-pyrazol-1-yl)-propan-1-ol] yielded an IC50 (ALK; [1]) of 100 to 1000 nM and an IC50 (JAK2; [2]) of under 100 nM.

Work on CN1CCN(c2ccc(Nc3ncc4ccc(-c5ccccc5C(N)=O)n4n3)cc2)CC1 [Example 409, 2-{2-[4-(4-Methyl-piperazin-1-yl)-phenylamino]-pyrrolo[2,1-f][1,2,4]triazin-7-yl}-benzamide] yielded an IC50 (ALK; ALK Kinase Inhibition) of 100 to 1000 nM and an IC50 (JAK2; JAK2 Kinase Inhibition) of under 100 nM.

Molecule c1ccc(Nc2ncc3cc4ccccc4n3n2)cc1 [Example 270, Phenyl-[1,2,4]triazino[1,6-a]indol-2-yl-amine] has an IC50 (ALK; ALK Kinase Inhibition) of over 10000 nM and an IC50 (JAK2; JAK2 Kinase Inhibition) of 100 to 1000 nM.

CCN(CC)C1CCN(c2ccc(Nc3ncc4ccc(-c5ccc(OC)nc5)n4n3)cc2)CC1 [Example 1206, [4-(4-Diethylamino-piperidin-1-yl)-phenyl]-[7-(6-methoxy-pyridin-3-yl)-pyrrolo[2,1-f][1,2,4]triazin-2-yl]-amine] was tested, and the IC50 (ALK; [1]) was 100 to 1000 nM and the IC50 (JAK2; [2]) was under 100 nM.

For CC(C)(C)NS(=O)(=O)c1cccc(-c2ccc3cnc(Nc4ccc(C5CCNCC5)cc4)nn23)c1 [Example 1059, N-tert-Butyl-3-[2-(4-piperidin-4-yl-phenylamino)-pyrrolo[2,1-f][1,2,4]triazin-7-yl]-benzenesulfonamide], the IC50 (ALK; [1]) was 100 to 1000 nM and the IC50 (JAK2; [2]) was under 100 nM.

With COc1ccc(Nc2ncc3ccc(-c4cccc(Cl)c4)n3n2)cc1 [Example 155, [7-(3-Chloro-phenyl)-pyrrolo[2,1-f][1,2,4]triazin-2-yl]-(4-methoxy-phenyl)-amine] the IC50 (ALK; ALK Kinase Inhibition) was over 10000 nM and the IC50 (JAK2; JAK2 Kinase Inhibition) was under 100 nM.

COc1ccc(Nc2ncc3cc4ccccc4n3n2)cc1 [Example 752, (4-Methoxy-phenyl)-[1,2,4]triazino[1,6-a]indol-2-yl-amine] gave an IC50 (ALK; [1]) of over 10000 nM and an IC50 (JAK2; [2]) of under 100 nM.

Work on COc1ccc(-c2ccc3cnc(Nc4ccc(C5CN(CC(N)=O)C5)cc4)nn23)cn1 [Example 584, 2-(3-{4-[7-(6-Methoxy-pyridin-3-yl)-pyrrolo[2,1-f][1,2,4]triazin-2-ylamino]-phenyl}-azetidin-1-yl)-acetamide] yielded an IC50 (ALK; [1]) of 100 to 1000 nM and an IC50 (JAK2; [2]) of under 100 nM.

Molecule COc1cc(OC2CCN(C)CC2)ccc1Nc1ncc2ccc(-c3ccccc3OC)n2n1 [Example 998, [2-Methoxy-4-(1-methyl-piperidin-4-yloxy)-phenyl]-[7-(2-methoxy-phenyl)-pyrrolo[2,1-f][1,2,4]triazin-2-yl]-amine] has an IC50 (ALK; [1]) of under 100 nM and an IC50 (JAK2; [2]) of under 100 nM.

C=Cc1cc(-c2ccccc2OC)n2nc(Nc3ccc(N4CCN(C)CC4)cc3)ncc12 [Example 103, [7-(2-Methoxy-phenyl)-5-vinyl-pyrrolo[2,1-f][1,2,4]triazin-2-yl]-[4-(4-methyl-piperazin-1-yl)-phenyl]-amine] was tested, and the IC50 (ALK; ALK Kinase Inhibition) was 100 to 1000 nM and the IC50 (JAK2; JAK2 Kinase Inhibition) was under 100 nM.

For COc1ccccc1-c1ccc2cnc(Nc3ccc4c(c3)NC(=O)C4(C)C)nn12 [Example 656, 6-[7-(2-Methoxy-phenyl)-pyrrolo[2,1-f][1,2,4]triazin-2-ylamino]-3,3-dimethyl-1,3-dihydro-indol-2-one], the IC50 (ALK; [1]) was 100 to 1000 nM and the IC50 (JAK2; [2]) was under 100 nM.

c1ccc(-c2ccc3cnc(Nc4ccc(N5CCOCC5)cc4)nn23)cc1 [Example 2, (4-Morpholin-4-yl-phenyl)-(7-phenyl-pyrrolo[2,1-f][1,2,4]triazin-2-yl)amine] was tested, and the IC50 (ALK; ALK Kinase Inhibition) was 100 to 1000 nM and the IC50 (JAK2; JAK2 Kinase Inhibition) was under 100 nM.

With c1cncc(-c2ccc3cnc(Nc4ccc(N5CCCC(N6CCOCC6)C5)cc4)nn23)c1 (centres unmarked) [Example 347, [4-(3-Morpholin-4-yl-piperidin-1-yl)-phenyl]-(7-pyridin-3-yl-pyrrolo[2,1-f][1,2,4]triazin-2-yl)-amine] the IC50 (ALK; ALK Kinase Inhibition) was 100 to 1000 nM and the IC50 (JAK2; JAK2 Kinase Inhibition) was under 100 nM.

Work on COc1ccccc1-c1ccc2cnc(Nc3ccc(OCCN4CCOCC4)cc3)nn12 [Example 128, [7-(2-Methoxy-phenyl)-pyrrolo[2,1-f][1,2,4]triazin-2-yl]-[4-(2-morpholin-4-yl-ethoxy)-phenyl]-amine] yielded an IC50 (ALK; ALK Kinase Inhibition) of under 100 nM and an IC50 (JAK2; JAK2 Kinase Inhibition) of under 100 nM.

With CC(C)S(=O)(=O)c1cccc(-c2ccc3cnc(Nc4ccc(Cl)c(OC[C@H]5CCCN5)c4)nn23)c1 [Example 1016, [4-Chloro-3-((R)-1-pyrrolidin-2-ylmethoxy)-phenyl]-{7-[3-(propane-2-sulfonyl)-phenyl]-pyrrolo[2,1-f][1,2,4]triazin-2-yl}-amine] the IC50 (ALK; [1]) was 100 to 1000 nM and the IC50 (JAK2; [2]) was under 100 nM.

With COc1cc(CN2CCN(C(=O)CN)CC2)ccc1Nc1ncc2ccc(-c3ccccc3OC)n2n1 [Example 1244, 2-Amino-1-(4-{3-methoxy-4-[7-(2-methoxy-phenyl)-pyrrolo[2,1-f][1,2,4]triazin-2-ylamino]-benzyl}-piperazin-1-yl)-ethanone] the IC50 (ALK; [1]) was under 100 nM and the IC50 (JAK2; [2]) was 100 to 1000 nM.

Work on COc1cc(C2CCN(CCF)CC2)ccc1Nc1ncc2ccc(-c3ccccc3N(C)S(C)(=O)=O)n2n1 [Example 792, N-[2-(2-{4-[1-(2-Fluoro-ethyl)-piperidin-4-yl]-2-methoxy-phenylamino}-pyrrolo[2,1-f][1,2,4]triazin-7-yl)-phenyl]-N-methyl-methanesulfonamide] yielded an IC50 (ALK; [1]) of under 100 nM and an IC50 (JAK2; [2]) of 100 to 1000 nM.
